From US20230233569A1 (Revolution Medicines, Inc., priority 2020, published 2023)

Experiments:
Assay in all cases: Disruption of BRAF RBD interaction with Ras (FRET / MOA assay, with Cyclophilin A)
Format in all cases: biochemical
KRAS G12V = KRAS G12V (Homo sapiens, UniProt P01116+P62937, G12V); details: KRAS G12V; read-out: KRAS G12V FRET data IC50
Procedure, shortened: (§1)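 Here, compound titrations (ten points, factor 3, from 30 μM final) act on nucleotide-bound K-Ras and Cyclophilin A, and ternary complex formation disrupts the RAF RBD interaction.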

KRAS G12D = KRAS G12D (Homo sapiens, UniProt P01116+P62937, G12D); details: read-out: KRAS G12D FRET data, IC50
Procedure, shortened: as §1

KRAS G12C = KRAS G12C (Homo sapiens, UniProt P01116+P62937, G12C); details: KRAS G12C; read-out: KRAS G12C FRET data IC50
Procedure, shortened: as §1

KRAS WT = KRAS WT (Homo sapiens, UniProt P01116+P62937); details: KRAS WT; read-out: KRAS WT FRET data IC50
Procedure, shortened: as §1

KRAS G12S = KRAS G12S (Homo sapiens, UniProt P01116+P62937, G12S); details: read-out: KRAS G12S FRET data, IC50
Procedure, shortened: as §1

KRAS G13C = KRAS G13C (Homo sapiens, UniProt P01116+P62937, G13C); details: KRAS G13C; read-out: KRAS G13C FRET data IC50
Procedure, shortened: as §1

KRAS Q61H = KRAS Q61H (Homo sapiens, UniProt P01116+P62937, Q61H); details: KRAS Q61H; read-out: KRAS Q61H FRET data IC50
Source text: (§2) Disruption of B-Raf Ras-Binding Domain (BRAF^RBD) Interaction with K-Ras by Compounds of the Invention (Also Called a FRET Assay or an MOA Assay)
(§3) Note—The following protocol describes a procedure for monitoring disruption of K-Ras G12C (GMP-PNP) binding to BRAF^RBD by a compound of the invention. This protocol may also be executed substituting other Ras proteins or nucleotides.
(§4) The purpose of this biochemical assay was to measure the ability of test compounds to facilitate ternary complex formation between a nucleotide-loaded K-Ras isoform and Cyclophilin A; the resulting ternary complex disrupts binding to a BRAF^RBD construct, inhibiting K-Ras signaling through a RAF effector. Data is reported as IC50 values.
(§5) In assay buffer containing 25 mM HEPES pH 7.3, 0.002% Tween20, 0.1% BSA, 100 mM NaCl and 5 mM MgCl2, tagless Cyclophilin A, His6-K-Ras-GMPPNP, and GST-BRAF^RBD were combined in a 384-well assay plate at final concentrations of 25 μM, 12.5 nM and 50 nM, respectively. Compound was present in plate wells as a 10-point 3-fold dilution series starting at a final concentration of 30 μM. After incubation at 25° C. for 3 hours, a mixture of Anti-His Eu-W1024 and anti-GST allophycocyanin was then added to assay sample wells at final concentrations of 10 nM and 50 nM, respectively, and the reaction incubated for an additional 1.5 hours. […] Compounds that facilitate disruption of a K-Ras:RAF complex were identified as those eliciting a decrease in the TR-FRET ratio relative to DMSO control wells.
as §4, with “BRAF^RBDD” for “BRAF^RBD”

NRAS Q61K = NRAS Q61K (Homo sapiens, UniProt P01111+P62937, Q61K); details: NRAS Q61K; read-out: NRAS Q61K FRET data IC50
Source text: as §2, §3, §4, §5
as §4, with “BRAF^RBDD” for “BRAF^RBD”

NRAS Q61R = NRAS Q61R (Homo sapiens, UniProt P01111+P62937, Q61R); details: NRAS Q61R; read-out: NRAS Q61R FRET data IC50
Source text: as §2, §3, §4, §5
as §4, with “BRAF^RBDD” for “BRAF^RBD”

Sequence of NRAS Q61R (P01111 whole entry Q61R): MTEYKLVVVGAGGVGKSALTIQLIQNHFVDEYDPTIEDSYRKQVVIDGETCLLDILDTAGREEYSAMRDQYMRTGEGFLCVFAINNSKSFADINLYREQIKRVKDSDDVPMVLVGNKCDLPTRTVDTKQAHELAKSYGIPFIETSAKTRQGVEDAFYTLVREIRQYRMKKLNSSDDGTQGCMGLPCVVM
Sequence of NRAS Q61R (P62937 whole entry): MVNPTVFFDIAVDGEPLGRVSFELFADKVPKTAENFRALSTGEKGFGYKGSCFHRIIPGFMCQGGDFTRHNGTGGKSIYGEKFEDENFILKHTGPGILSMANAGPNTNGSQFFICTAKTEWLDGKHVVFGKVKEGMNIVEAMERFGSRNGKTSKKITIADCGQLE
Sequence of KRAS G12V (P01116 1-169 isoform P01116-2 G12V limits assumed): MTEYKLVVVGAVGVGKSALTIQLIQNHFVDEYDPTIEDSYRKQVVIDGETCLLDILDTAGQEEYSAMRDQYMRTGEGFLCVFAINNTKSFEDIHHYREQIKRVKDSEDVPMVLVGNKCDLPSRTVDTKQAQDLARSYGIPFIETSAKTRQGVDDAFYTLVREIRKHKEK
Sequence of KRAS G12V (P62937 whole entry): as the sequence (P62937 whole entry) above
Sequence of KRAS G12C (P01116 1-169 isoform P01116-2 G12C): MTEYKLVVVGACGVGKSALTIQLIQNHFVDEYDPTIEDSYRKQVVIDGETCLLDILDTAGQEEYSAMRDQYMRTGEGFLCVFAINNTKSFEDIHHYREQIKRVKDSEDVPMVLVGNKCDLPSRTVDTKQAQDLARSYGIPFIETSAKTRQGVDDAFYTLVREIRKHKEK
Sequence of KRAS G12C (P62937 whole entry): as the sequence (P62937 whole entry) above
Sequence of KRAS WT (P01116 1-169 isoform P01116-2 limits assumed): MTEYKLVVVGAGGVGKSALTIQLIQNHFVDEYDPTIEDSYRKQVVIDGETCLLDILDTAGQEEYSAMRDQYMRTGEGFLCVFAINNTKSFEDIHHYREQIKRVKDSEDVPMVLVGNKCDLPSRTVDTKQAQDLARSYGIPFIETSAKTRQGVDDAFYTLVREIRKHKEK
Sequence of KRAS WT (P62937 whole entry): as the sequence (P62937 whole entry) above
Sequence of NRAS Q61K (P01111 whole entry Q61K): as the sequence (P01111 whole entry Q61R) above, with R61K counted along it
Sequence of NRAS Q61K (P62937 whole entry): as the sequence (P62937 whole entry) above
Sequence of KRAS G13C (P01116 1-169 isoform P01116-2 G13C): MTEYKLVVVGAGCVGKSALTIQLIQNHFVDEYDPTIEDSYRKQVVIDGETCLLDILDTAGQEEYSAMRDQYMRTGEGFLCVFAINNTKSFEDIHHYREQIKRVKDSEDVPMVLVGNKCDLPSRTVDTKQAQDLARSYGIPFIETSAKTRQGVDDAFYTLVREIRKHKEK
Sequence of KRAS G13C (P62937 whole entry): as the sequence (P62937 whole entry) above
Sequence of KRAS Q61H (P01116 1-169 isoform P01116-2 Q61H limits assumed): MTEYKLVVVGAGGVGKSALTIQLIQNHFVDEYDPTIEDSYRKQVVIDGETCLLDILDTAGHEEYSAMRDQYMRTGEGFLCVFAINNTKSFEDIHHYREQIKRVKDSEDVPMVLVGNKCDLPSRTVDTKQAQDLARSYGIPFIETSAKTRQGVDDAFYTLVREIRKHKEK
Sequence of KRAS Q61H (P62937 whole entry, the tested form may be a part): as the sequence (P62937 whole entry) above
Sequence of KRAS G12S (P01116 1-169 isoform P01116-2 G12S limits assumed): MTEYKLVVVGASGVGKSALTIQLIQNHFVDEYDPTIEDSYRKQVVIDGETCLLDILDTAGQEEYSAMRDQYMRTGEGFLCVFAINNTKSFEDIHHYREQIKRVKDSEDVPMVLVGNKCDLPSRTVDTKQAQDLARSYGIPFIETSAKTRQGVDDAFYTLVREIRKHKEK
Sequence of KRAS G12S (P62937 whole entry): as the sequence (P62937 whole entry) above
Sequence of KRAS G12D (P01116 1-169 isoform P01116-2 G12D limits assumed): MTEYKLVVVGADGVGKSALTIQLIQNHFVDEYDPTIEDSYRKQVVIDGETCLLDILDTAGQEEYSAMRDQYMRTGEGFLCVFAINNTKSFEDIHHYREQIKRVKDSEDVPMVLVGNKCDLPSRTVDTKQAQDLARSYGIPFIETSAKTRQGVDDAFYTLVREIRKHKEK
Sequence of KRAS G12D (P62937 whole entry): as the sequence (P62937 whole entry) above

| Compound | IC50 (KRAS G12V) | IC50 (KRAS G12D) | IC50 (KRAS G12C) | IC50 (KRAS WT) | IC50 (KRAS G12S) | IC50 (KRAS G13C) | IC50 (KRAS Q61H) | IC50 (NRAS Q61K) | IC50 (NRAS Q61R) |
| --- | --- | --- | --- | --- | --- | --- | --- | --- | --- |
| C=CC(=O)N1CC[C@H](C(=O)N(C)[C@H](C(=O)N[C@H]2Cc3cc(O)cc(c3)-c3ccc4c(c3)c(c(-c3cncnc3)n4CC)CC(C)(C)COC(=O)[C@@H]3CCCN(N3)C2=O)C(C)C)C1 [Example A061] | 1000 to 10000 nM | > 10 µM | 100 to 1000 nM | 1000 to 10000 nM | 1000 to 10000 nM | 1000 to 10000 nM | 1000 to 10000 nM | 1000 to 10000 nM | > 10 µM |
| C=CC(=O)N1CC[C@H](C(=O)N(C)[C@H](C(=O)N[C@H]2Cc3cc(O)cc(c3)-c3ccc4c(c3)c(c(-c3cccnc3N3CC(OC)C3)n4CC)CC(C)(C)COC(=O)[C@@H]3CCCN(N3)C2=O)C(C)C)C1 [Example A060] | 1000 to 10000 nM | > 10 µM | 100 to 1000 nM | > 10000 nM | 1000 to 10000 nM | 1000 to 10000 nM | 1000 to 10000 nM | 1000 to 10000 nM | > 10 µM |
| C=CC(=O)N1CC[C@H](C(=O)N(C)[C@H](C(=O)N[C@H]2Cc3cc(O)cc(c3)-c3ccc4c(c3)c(c(-c3cnccc3C)n4CC)CC(C)(C)COC(=O)[C@@H]3CCCN(N3)C2=O)C(C)C)C1 [Example A077] | 100 to 1000 nM | 1 to 10 µM | 10 to 100 nM | 100 to 1000 nM | 100 to 1000 nM | 100 to 1000 nM | 10 to 100 nM | 100 to 1000 nM | 1 to 10 µM |
| C=CC(=O)N1CC[C@H](C(=O)N(C)[C@H](C(=O)N[C@H]2Cc3cc(O)cc(c3)-c3ccc4c(c3)c(c(C3=C(COC)CCCC3)n4CC)CC(C)(C)COC(=O)[C@@H]3CCCN(N3)C2=O)C(C)C)C1 [Example A064] | 1000 to 10000 nM | > 10 µM | 10 to 100 nM | 1000 to 10000 nM | 100 to 1000 nM | 1000 to 10000 nM | 100 to 1000 nM | 1000 to 10000 nM | 1 to 10 µM |
| C=CC(=O)N1CC[C@H](C(=O)N(C)[C@H](C(=O)N[C@H]2Cc3cc(O)cc(c3)-c3ccc4c(c3)c(c(-c3cc(F)cnc3COC)n4CC)CC(C)(C)COC(=O)[C@@H]3CCCN(N3)C2=O)C(C)C)C1 [Example A082] | 100 to 1000 nM | 1 to 10 µM | 10 to 100 nM | 100 to 1000 nM | 100 to 1000 nM | 100 to 1000 nM | 10 to 100 nM | 100 to 1000 nM | 0.1 to 1 µM |
| C=CC(=O)N1CC[C@H](C(=O)N(C)[C@H](C(=O)N[C@H]2Cc3cc(O)cc(c3)-c3ccc4c(c3)c(c(-c3c(CCOC)cccc3OC)n4CC)CC(C)(C)COC(=O)[C@@H]3CCCN(N3)C2=O)C(C)C)C1 [Example A080] | 1000 to 10000 nM | > 10 µM | 100 to 1000 nM | > 10000 nM | > 10000 nM | > 10000 nM | 1000 to 10000 nM | 1000 to 10000 nM | > 10 µM |
| C=CC(=O)N1CC[C@H](C(=O)N(C)[C@H](C(=O)N[C@H]2Cc3cc(O)cc(c3)-c3ccc4c(c3)c(c(-c3cccnc3)n4CC)CC(C)(C)COC(=O)[C@@H]3CCCN(N3)C2=O)C(C)C)C1 [Example A045] | 1000 to 10000 nM | > 10 µM | 100 to 1000 nM | 1000 to 10000 nM | 1000 to 10000 nM | 1000 to 10000 nM | 100 to 1000 nM | 1000 to 10000 nM | > 10 µM |
| C=CC(=O)N1CC[C@H](C(=O)N(C)[C@H](C(=O)N[C@H]2Cc3cc(O)cc(c3)-c3ccc4c(c3)c(c(-c3ccccc3[C@H](C)OC)n4CC)CC(C)(C)COC(=O)[C@@H]3CCCN(N3)C2=O)C(C)C)C1 [Example A022] | 100 to 1000 nM | 1 to 10 µM | 10 to 100 nM | 100 to 1000 nM | 100 to 1000 nM | 100 to 1000 nM | 10 to 100 nM | 100 to 1000 nM | 0.1 to 1 µM |
| C=CC(=O)N1CC[C@H](C(=O)N(C)[C@H](C(=O)N[C@H]2Cc3cc(O)cc(c3)-c3ccc4c(c3)c(c(-c3ccncc3)n4C(C)(C)C#N)CC(C)(C)COC(=O)[C@@H]3CCCN(N3)C2=O)C(C)C)C1 [Example A086] | 100 to 1000 nM | 1 to 10 µM | 10 to 100 nM | 1000 to 10000 nM | 100 to 1000 nM | 100 to 1000 nM | 100 to 1000 nM | 100 to 1000 nM | 1 to 10 µM |
